Columns and labels:
[1] = Viscosity of crude blended with dimethyl sulfide (rheometer); type: physicochemical
Experimental: The quality of dimethyl sulfide as an oil recovery agent based on the crude oil viscosity lowering properties of dimethyl sulfide was evalulated. Three crude oils having widely disparate viscosity characteristics—an African Waxy crude, a Middle Eastern asphaltic crude, and a Canadian asphaltic crude—were blended with dimethyl sulfide.
A control sample of each crude was prepared containing no dimethyl sulfide, and samples of each crude were prepared and blended with dimethyl sulfide to prepare crude samples containing increasing concentrations of dimethyl sulfide. Each sample of each of the crudes was heated to 60° C. to dissolve any waxes therein and to permit weighing of a homogeneous liquid, weighed, allowed to cool overnight, then blended with a selected quantity of dimethyl sulfide. The samples of the crude/dimethyl sulfide blend were then heated to 60° C. and mixed to ensure homogeneous blending of the dimethyl sulfide in the samples. Absolute (dynamic) viscosity measurements of each of the samples were taken using a rheometer and closed cup sensor assembly. Viscosity measurements of each of the samples of the West African waxy crude and the Middle Eastern asphaltic crude were taken at 20° C., 40° C., 60° C., 80° C., and then again at 20° C. after cooling from 80° C., where the second measurement at 20° C. is taken to measure the viscosity without the presence of waxes since wax formation occurs slowly enough to permit viscosity measurement at 20° C. without the presence of wax. Viscosity measurements of each of the samples of the Canadian asphaltic crude were taken at 5° C., 10° C., 20° C., 40° C., 60° C., 80° C., The measured viscosities for each of the crudes are shown in Tables 4, 5, and 6 below.

[2] = Extraction of mined oil sands with solvents (bitumen recovery); conditions: for Recovered Bitumen: not corrected for residual solvent;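 on Recovered Bitumen: Bitumen mass includes 3 to 7 wt% residual solvent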
Experimental: The quality of dimethyl sulfide as an oil recovery agent based on the miscibility of dimethyl sulfide with a crude oil relative to other compounds was evaluated. […] Each oil sands sample was weighed and placed in a cellulose extraction thimble that was placed on a porous polyethylene support disk in a jacketed glass cylinder with a drip rate control valve. Each oil sands sample was then extracted with a selected solvent at a selected temperature (10° C. or 30° C.) in a cyclic contact and drain experiment, where the contact time ranged from 15 to 60 minutes. Fresh contacting solvent was applied and the cyclic extraction repeated until the fluid drained from the apparatus became pale brown in color.
The extracted fluids were stripped of solvent using a rotary evaporator and thereafter vacuum dried to remove residual solvent. […] The residual solids and extraction thimble were air dried, weighed, and then vacuum dried. […] Collectively, the weight of the solid or sample and thimble recovered after extraction plus the quantity of bitumen recovered after extraction divided by the weight of the initial oil sands sample plus the thimble provide the mass closure for the extractions.

## CSC [Dimethyl Sulfide, dimethyl sulfide]
[1]; DMS 1.21 wt. %, 20° C.
  Viscosity: 125.8 mPa s
[1]; DMS 1.21 wt. %, 20° C. after cooling from 80° C.
  Viscosity: 100.1 mPa s
[1]; DMS 1.21 wt. %, 40° C.
  Viscosity: 30.94 mPa s
[1]; DMS 1.21 wt. %, 60° C.
  Viscosity: 14.66 mPa s
[1]; DMS 1.21 wt. %, 80° C.
  Viscosity: 8.92 mPa s
[1]; DMS 1.3 wt. %, 20° C.
  Viscosity: 1733.8 mPa s
[1]; DMS 1.3 wt. %, 20° C. after cooling from 80° C.
  Viscosity: 1624.8 mPa s
[1]; DMS 1.3 wt. %, 40° C.
  Viscosity: 334.5 mPa s
[1]; DMS 1.3 wt. %, 60° C.
  Viscosity: 106.7 mPa s
[1]; DMS 1.3 wt. %, 80° C.
  Viscosity: 44.6 mPa s
[1]; DMS 2.48 wt. %, 20° C.
  Viscosity: 122.3 mPa s
[1]; DMS 2.48 wt. %, 20° C. after cooling from 80° C.
  Viscosity: 89.23 mPa s
[1]; DMS 2.48 wt. %, 40° C.
  Viscosity: 30.53 mPa s
[1]; DMS 2.48 wt. %, 60° C.
  Viscosity: 13.66 mPa s
[1]; DMS 2.48 wt. %, 80° C.
  Viscosity: 8.44 mPa s
[1]; DMS 2.6 wt. %, 20° C.
  Viscosity: 1026.6 mPa s
[1]; DMS 2.6 wt. %, 20° C. after cooling from 80° C.
  Viscosity: 881.1 mPa s
[1]; DMS 2.6 wt. %, 40° C.
  Viscosity: 219.9 mPa s
[1]; DMS 2.6 wt. %, 60° C.
  Viscosity: 76.5 mPa s
[1]; DMS 2.6 wt. %, 80° C.
  Viscosity: 34.3 mPa s
[1]; DMS 5.03 wt. %, 20° C.
  Viscosity: 78.37 mPa s
[1]; DMS 5.03 wt. %, 20° C. after cooling from 80° C.
  Viscosity: 55.21 mPa s
[1]; DMS 5.03 wt. %, 40° C.
  Viscosity: 20.24 mPa s
[1]; DMS 5.03 wt. %, 60° C.
  Viscosity: 10.45 mPa s
[1]; DMS 5.03 wt. %, 80° C.
  Viscosity: 6.55 mPa s
[1]; DMS 5.3 wt. %, 20° C.
  Viscosity: 496.5 mPa s
[1]; DMS 5.3 wt. %, 20° C. after cooling from 80° C.
  Viscosity: 503.5 mPa s
[1]; DMS 5.3 wt. %, 40° C.
  Viscosity: 134.2 mPa s
[1]; DMS 5.3 wt. %, 60° C.
  Viscosity: 52.2 mPa s
[1]; DMS 5.3 wt. %, 80° C.
  Viscosity: 25.5 mPa s
[1]; DMS 7.6 wt. %, 20° C.
  Viscosity: 288.0 mPa s
[1]; DMS 7.60 wt. %, 20° C.
  Viscosity: 60.92 mPa s
[1]; DMS 7.6 wt. %, 20° C. after cooling from 80° C.
  Viscosity: 290.0 mPa s
[1]; DMS 7.60 wt. %, 20° C. after cooling from 80° C.
  Viscosity: 40.89 mPa s
[1]; DMS 7.6 wt. %, 40° C.
  Viscosity: 89.4 mPa s
[1]; DMS 7.60 wt. %, 40° C.
  Viscosity: 17.08 mPa s
[1]; DMS 7.6 wt. %, 60° C.
  Viscosity: 37.4 mPa s
[1]; DMS 7.60 wt. %, 60° C.
  Viscosity: 9.29 mPa s
[1]; DMS 7.6 wt. %, 80° C.
  Viscosity: 19.3 mPa s
[1]; DMS 7.60 wt. %, 80° C.
  Viscosity: 6.09 mPa s
[1]; DMS 8.01 wt. %, 20° C.
  Viscosity: 5799 mPa s
[1]; DMS 8.01 wt. %, 40° C.
  Viscosity: 982 mPa s
[1]; DMS 8.01 wt. %, 60° C.
  Viscosity: 275 mPa s
[1]; DMS 8.01 wt. %, 80° C.
  Viscosity: 106 mPa s
[1]; DMS 9.80 wt. %, 20° C.
  Viscosity: 2760 mPa s
[1]; DMS 9.80 wt. %, 40° C.
  Viscosity: 571 mPa s
[1]; DMS 9.80 wt. %, 60° C.
  Viscosity: 173 mPa s
[1]; DMS 9.80 wt. %, 80° C.
  Viscosity: 73 mPa s
[1]; DMS 9.95 wt. %, 20° C.
  Viscosity: 44.70 mPa s
[1]; DMS 9.95 wt. %, 20° C. after cooling from 80° C.
  Viscosity: 30.61 mPa s
[1]; DMS 9.95 wt. %, 40° C.
  Viscosity: 13.03 mPa s
[1]; DMS 9.95 wt. %, 60° C.
  Viscosity: 7.58 mPa s
[1]; DMS 9.95 wt. %, 80° C.
  Viscosity: 5.04 mPa s
[1]; DMS 10.1 wt. %, 20° C.
  Viscosity: 150.0 mPa s
[1]; DMS 10.1 wt. %, 20° C. after cooling from 80° C.
  Viscosity: 150.5 mPa s
[1]; DMS 10.1 wt. %, 40° C.
  Viscosity: 52.4 mPa s
[1]; DMS 10.1 wt. %, 60° C.
  Viscosity: 24.5 mPa s
[1]; DMS 10.1 wt. %, 80° C.
  Viscosity: 13.5 mPa s
[1]; DMS 14.81 wt. %, 5° C.
  Viscosity: 1794 mPa s
[1]; DMS 14.81 wt. %, 10° C.
  Viscosity: 1155 mPa s
[1]; DMS 14.81 wt. %, 20° C.
  Viscosity: 548 mPa s
[1]; DMS 14.81 wt. %, 40° C.
  Viscosity: 159 mPa s
[1]; DMS 14.81 wt. %, 60° C.
  Viscosity: 64 mPa s
[1]; DMS 14.81 wt. %, 80° C.
  Viscosity: 32 mPa s
[1]; DMS 15.13 wt. %, 20° C.
  Viscosity: 23.96 mPa s
[1]; DMS 15.13 wt. %, 20° C. after cooling from 80° C.
  Viscosity: 17.64 mPa s
[1]; DMS 15.13 wt. %, 40° C.
  Viscosity: 8.32 mPa s
[1]; DMS 15.13 wt. %, 60° C.
  Viscosity: 4.97 mPa s
[1]; DMS 15.13 wt. %, 80° C.
  Viscosity: 3.38 mPa s
[1]; DMS 15.2 wt. %, 20° C.
  Viscosity: 59.4 mPa s
[1]; DMS 15.2 wt. %, 20° C. after cooling from 80° C.
  Viscosity: 60.7 mPa s
[1]; DMS 15.2 wt. %, 40° C.
  Viscosity: 25.2 mPa s
[1]; DMS 15.2 wt. %, 60° C.
  Viscosity: 13.6 mPa s
[1]; DMS 15.2 wt. %, 80° C.
  Viscosity: 8.2 mPa s
[1]; DMS 19.30 wt. %, 20° C.
  Viscosity: 15.26 mPa s
[1]; DMS 19.30 wt. %, 20° C. after cooling from 80° C.
  Viscosity: 12.06 mPa s
[1]; DMS 19.30 wt. %, 40° C.
  Viscosity: 6.25 mPa s
[1]; DMS 19.30 wt. %, 60° C.
  Viscosity: 4.05 mPa s
[1]; DMS 19.30 wt. %, 80° C.
  Viscosity: 2.92 mPa s
[1]; DMS 19.78 wt. %, 20° C.
  Viscosity: 188 mPa s
[1]; DMS 19.78 wt. %, 40° C.
  Viscosity: 69 mPa s
[1]; DMS 19.78 wt. %, 60° C.
  Viscosity: 33 mPa s
[1]; DMS 19.78 wt. %, 80° C.
  Viscosity: 19 mPa s
[1]; DMS 20.1 wt. %, 20° C.
  Viscosity: 29.9 mPa s
[1]; DMS 20.1 wt. %, 20° C. after cooling from 80° C.
  Viscosity: 31.0 mPa s
[1]; DMS 20.1 wt. %, 40° C.
  Viscosity: 14.8 mPa s
[1]; DMS 20.1 wt. %, 60° C.
  Viscosity: 8.7 mPa s
[1]; DMS 20.1 wt. %, 80° C.
  Viscosity: 5.7 mPa s
[1]; DMS 29.88 wt. %, 5° C.
  Viscosity: 113 mPa s
[1]; DMS 29.88 wt. %, 10° C.
  Viscosity: 81 mPa s
[1]; DMS 29.88 wt. %, 20° C.
  Viscosity: 51 mPa s
[1]; DMS 29.88 wt. %, 40° C.
  Viscosity: 22 mPa s
[1]; DMS 29.88 wt. %, 60° C.
  Viscosity: 13 mPa s
[1]; DMS 29.88 wt. %, 80° C.
  Viscosity: 8 mPa s
[1]; DMS 39.61 wt. %, 5° C.
  Viscosity: 23 mPa s
[1]; DMS 39.61 wt. %, 10° C.
  Viscosity: 20 mPa s
[1]; DMS 39.61 wt. %, 20° C.
  Viscosity: 14 mPa s
[1]; DMS 39.61 wt. %, 40° C.
  Viscosity: 8 mPa s
[1]; DMS 39.61 wt. %, 60° C.
  Viscosity: 6 mPa s
[1]; DMS 39.61 wt. %, 80° C.
  Viscosity: 4 mPa s
[1]; three crudes, wide range of initial viscosities
  lowering the viscosity of a crude oil: effective for significantly lowering the viscosity
[2]; 10° C. and 30° C.
  recovering bitumen from an oil sand material, compared with the best known fluids: comparable
[2]; extraction at 10 C.
  Weight Change: 16.9 g
  Recovered Bitumen: 16.55 g
[2]; extraction at 30 C.
  Weight Change: 16.7 g
  Recovered Bitumen: 16.29 g

Reference: patent US20140000883A1, “PETROLEUM RECOVERY PROCESS AND SYSTEM” (Shell Oil Company, priority 2012, published 2014)
